The experiment has as its target T1, HIV integrase (Human immunodeficiency virus type 1 group M subtype B, UniProt P12497, F1332H).
T1 construct: HIV integrase full length gene; made in house; host or cells: Escherichia coli BL21(DE3), plasmid pET21a-INH
The experiment is described as follows: Determination of enzyme (HIV integrase) inhibitory activity. It is filed as biochemical. Conditions: recombinant HIV integrase (F185H), strand transfer ELISA, absorbance at 450 nm. The method in brief: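 Full-length integrase with F185H, expressed in E. coli and purified, was reacted for 60 min at 37 °C with compound and biotinylated donor DNA bound to streptavidin plates. Target DNA was added for 10 min, then anti-digoxigenin-peroxidase detection at A450; IC50 from % inhibition versus enzyme-free blank.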

Where a name gives a salt, the structure may show the parent alone.

IC50 data for 34 compounds are collected here from US7211572B2 (Japan Tobacco Inc., priority 2003, dated 2007).

`COCC(C)(C)C(=O)c1cn2ccn(Cc3ccc(F)cc3)c(=O)c2c(O)c1=O` [Example 425, 2-(4-fluorobenzyl)-9-hydroxy-7-(3-methoxy-2,2-dimethylpropionyl)-2H-pyrido[1,2-a]pyrazine-1,8-dione hydrochloride]: the IC50 is < 10 nM.

As to `CC(C)(C)C(=O)Cc1c(C(=O)C(C)(C)C)c(=O)c(O)c2n1CCN(Cc1ccc(F)cc1)C2=O` [Example 427, 6-(3,3-dimethyl-2-oxobutyl)-7-(2,2-dimethylpropionyl)-2-(4-fluorobenzyl)-9-hydroxy-3,4-dihydro-2H-pyrido [1,2-a]pyrazine-1,8-dione hydrochloride], the IC50 was 10 to 100 nM.

Take `CNC(=O)c1cn2c(c(O)c1=O)C(=O)N(Cc1ccc(Cl)cc1)CC2` [Example 381, N-methyl-2-(4-chlorobenzyl)-9-hydroxy-1,8-dioxo-1,3,4,8-tetrahydro-2H-pyrido[1,2-a]pyrazine-7-carboxamide]: the IC50 lay in the range of 10 to 100 nM. For `O=C1c2c(O)c(=O)c(-c3ccccn3)cn2CCN1CCCc1c(F)cccc1Cl` [Example 329, 2-[3-(2-chloro-6-fluorophenyl)propyl]-9-hydroxy-7-(pyridin-2-yl)-3,4-dihydro-2H-pyrido[1,2-a]pyrazine-1,8-dione hydrochloride], the IC50 was in the range of 10 to 100 nM. To `O=c1ccn2c(CO)cn(Cc3cccc(Cl)c3)c(=O)c2c1O` [Example 102, 2-(3-chlorobenzyl)-9-hydroxy-4-hydroxymethyl-2H-pyrido[1,2-a]pyrazine-1,8-dione] belongs 10 to 100 nM; to `O=C1c2c(O)c(=O)c(-c3nccs3)cn2CCN1CCCc1ccccc1` [Example 316, 9-hydroxy-2-(3-phenylpropyl)-7-(thiazol-2-yl)-3,4-dihydro-2H-pyrido[1,2-a]pyrazine-1,8-dione hydrochloride], 10 to 100 nM. With `O=C(NC(Cc1ccccc1)c1ccccc1)c1cn2c(c(O)c1=O)C(=O)N(Cc1cccc(Cl)c1)CC2` (stereo not shown) [Example 331, N-(1,2-diphenylethyl)-2-(3-chlorobenzyl)-9-hydroxy-1,8-dioxo-1,3,4,8-tetrahydro-2H-pyrido[1,2-a]pyrazine-7-carboxamide] the figure was 10 to 100 nM; with `O=C1c2c(O)c(=O)c(-c3cnccn3)cn2CCN1Cc1ccc(Cl)c(Cl)c1` [Example 383, 2-(3,4-dichlorobenzyl)-9-hydroxy-7-(pyrazin-2-yl)-3,4-dihydro-2H-pyrido[1,2-a]pyrazine-1,8-dione hydrochloride], 10 to 100 nM. With `COCCNC(=O)c1cn2ccn(Cc3cccc(Cl)c3)c(=O)c2c(O)c1=O` [Example 176, N-(2-methoxyethyl)-2-(3-chlorobenzyl)-9-hydroxy-1,8-dioxo-1,8-dihydro-2H-pyrido[1,2-a]pyrazine-7-carboxamide] the figure was 10 to 100 nM; with `O=C(Nc1cn2ccn(Cc3cccc(Cl)c3)c(=O)c2c(O)c1=O)c1ccc(F)cc1` [Example 278, N-[2-(3-chlorobenzyl)-9-hydroxy-1,8-dioxo-1,8-dihydro-2H-pyrido[1,2-a]pyrazin-7-yl]-4-fluorobenzamide], < 10 nM; with `O=c1ccn2ccn(Cc3cccc(Cl)c3O)c(=O)c2c1O` [Example 179, 2-(3-chloro-2-hydroxybenzyl)-9-hydroxy-2H-pyrido[1,2-a]pyrazine-1,8-dione hydrochloride], 10 to 100 nM. For `COC(=O)C1CN(Cc2ccc(Cl)c(Cl)c2)C(=O)c2c(O)c(=O)ccn21` (stereo not shown) [Example 21, methyl 2-(3,4-dichlorobenzyl)-9-hydroxy-1,8-dioxo-1,3,4,8-tetrahydro-2H-pyrido[1,2-a]pyrazine-4-carboxylate], the IC50 fell in the range of 10 to 100 nM. Take `O=C1c2c(O)c(=O)c(NS(=O)(=O)c3ccccc3)cn2CCN1Cc1ccc(F)c(Cl)c1` [Example 418, N-[2-(3-chloro-4-fluorobenzyl)-9-hydroxy-1,8-dioxo-1,3,4,8-tetrahydro-2H-pyrido[1,2-a]pyrazin-7-yl]benzenesulfonamide]: the IC50 is 10 to 100 nM. With `CN(C)C(=O)c1cn2ccn(Cc3cccc(Cl)c3)c(=O)c2c(O)c1=O` [Example 153, N,N-dimethyl-2-(3-chlorobenzyl)-9-hydroxy-1,8-dioxo-1,8-dihydro-2H-pyrido[1,2-a]pyrazine-7-carboxamide] the figure was 10 to 100 nM. With `CCc1ccccc1-c1cn2ccn(Cc3cccc(Cl)c3)c(=O)c2c(O)c1=O` [Example 138, 2-(3-chlorobenzyl)-7-(2-ethylphenyl)-9-hydroxy-2H-pyrido[1,2-a]pyrazine-1,8-dione hydrochloride] the figure was 10 to 100 nM. To `CS(=O)(=O)Oc1c(=O)c(Br)cn2ccn(Cc3cccc(Cl)c3)c(=O)c12` [Example 109, 7-bromo-2-(3-chlorobenzyl)-1,8-dioxo-1,8-dihydro-2H-pyrido[1,2-a]pyrazin-9-yl methanesulfonate] belongs 100 to 1000 nM. On to `CC1(C)CN(Cc2ccc(F)cc2)C(=O)c2c(O)c(=O)c(-c3ccccn3)cn21` [Example 414, 2-(4-fluorobenzyl)-9-hydroxy-4,47dimethyl-7-(pyridin-2-yl)-3,4-dihydro-2H-pyrido[1,2-a]pyrazine-1,8-dione hydrochloride], for which the IC50 was 100 to 1000 nM. With `CC(C)OCc1cc(=O)c(O)c2n1CCN(Cc1ccc(Cl)c(Cl)c1)C2=O` [Example 38, 2-(3,4-dichlorobenzyl)-9-hydroxy-6-isopropoxymethyl-3,4-dihydro-2H-pyrido[1,2-a]pyrazine-1,8-dione] the figure was 10 to 100 nM.

Consider `CNC(=O)c1cn2c(CO)cn(Cc3ccc(F)c(Cl)c3)c(=O)c2c(O)c1=O` [Example 222, 2-(3-chloro-4-fluorobenzyl)-9-hydroxy-4-hydroxymethyl-1,8-dioxo-1,8-dihydro-2H-pyrido[1,2-a]pyrazine-7-carboxylic acid methylamide hydrochloride], for which the IC50 was < 10 nM.

Take `O=C(NCC(F)(F)F)c1cn2ccn(Cc3cccc(Cl)c3)c(=O)c2c(O)c1=O` [Example 181, N-(2,2,2-trifluoroethyl)-2-(3-chlorobenzyl)-9-hydroxy-1,8-dioxo-1,8-dihydro-2H-pyrido[1,2-a]pyrazine-7-carboxamide]: the IC50 is 10 to 100 nM.

For the compound `CN(C)c1ccc(CNC(=O)c2cn3c(c(O)c2=O)C(=O)N(Cc2ccc(F)cc2)CC3)cc1` [Example 415, N-(4-dimethylaminobenzyl)-2-(4-fluorobenzyl)-9-hydroxy.-1,8-dioxo-1,3,4,8-tetrahydro-2H-pyrido[1,2-a]pyrazine-7-carboxamide hydrochloride], the IC50 lay in the range of 10 to 100 nM. As to `COC(=O)c1cn2ccn(Cc3cccc(Cl)c3)c(=O)c2c(O)c1=O` [Example 147, methyl 2-(3-chlorobenzyl)-9-hydroxy-1,8-dioxo-1,8-dihydro-2H-pyrido[1,2-a]pyrazine-7-carboxylate hydrochloride], the IC50 was 10 to 100 nM. For `O=C1c2c(O)c(=O)c(-c3cc[nH]n3)cn2CCN1Cc1cccc(Cl)c1` [Example 267, 2-(3-chlorobenzyl)-9-hydroxy-7-(1H-pyrazol-3-yl)-3,4-dihydro-2H-pyrido[1,2-a]pyrazine-1,8-dione], the IC50 is 10 to 100 nM. To `CNC(=O)c1cn2c(c(O)c1=O)C(=O)N(Cc1ccc(F)cc1)CC2` [Example 379] belongs 100 to 1000 nM; to `O=c1ccn2ccn(CCCc3ccc(Cl)c(Cl)c3)c(=O)c2c1O` [Example 79, 2-[3-(3,4-dichlorophenyl)propyl]-9-hydroxy-2H-pyrido[1,2-a]pyrazine-1,8-dione], 10 to 100 nM; to `CC(C)S(=O)(=O)Nc1cn2ccn(Cc3ccc(F)cc3)c(=O)c2c(O)c1=O` [Example 319, N-[2-(4-fluorobenzyl)-9-hydroxy-1,8-dioxo-1,8-dihydro-2H-pyrido[1,2-a]pyrazin-7-yl]-2-propanesulfonamide], 10 to 100 nM. With `O=C(Cn1ccn2ccc(=O)c(O)c2c1=O)Nc1ccccc1` [Example 200, 2-(9-hydroxy-1,8-dioxo-1,8-dihydro-pyrido[1,2-a]pyrazin-2-yl)-N-phenylacetamide hydrochloride] the figure was 100 to 1000 nM; with `CS(=O)(=O)Nc1cn2ccn(Cc3ccc(F)cc3)c(=O)c2c(O)c1=O` [Example 305, N-[2-(4-fluorobenzyl)-9-hydroxy-1,8-dioxo-1,8-dihydro-2H-pyrido[1,2-a]pyrazin-7-yl]methanesulfonamide], < 10 nM; with `CCNC(=O)c1cn2ccn(Cc3cccc(Cl)c3)c(=O)c2c(O)c1=O` [Example 175, N-ethyl-2-(3-chlorobenzyl)-9-hydroxy-1,8-dioxo-1,8-dihydro-2H-pyrido[1,2-a]pyrazine-7-carboxamide], < 10 nM. With `Cc1cc(=O)c(O)c2n1CCN(Cc1ccc(Cl)c(Cl)c1)C2=O` [Example 60, 2-(3,4-dichlorobenzyl)-9-hydroxy-6-methyl-3,4-dihydro-2H-pyrido[1,2-a]pyrazine-1,8-dione] the figure was 10 to 100 nM. Take `CNC(=O)c1cc(=O)c(O)c2n1CCN(Cc1ccc(Cl)c(Cl)c1)C2=O` [Example 56, N-methyl-2-(3,4-dichlorobenzyl)-9-hydroxy-1,8-dioxo-1,3,4,8-tetrahydro-2H-pyrido[1,2-a]pyrazine-6-carboxamide]: the IC50 lay within 10 to 100 nM. Regarding `O=C1c2c(O)c(=O)ccn2C(c2ccccc2)CN1Cc1ccc(Cl)c(Cl)c1` (stereo not shown) [Example 15, 2-(3,4-dichlorobenzyl)-9-hydroxy-4-phenyl-3,4-dihydro-2H-pyrido[1,2-a]pyrazine-1,8-dione], the IC50 fell in the range of 10 to 100 nM. With `CC(C)c1cc(=O)c(O)c2n1CCN(Cc1ccc(Cl)c(Cl)c1)C2=O` [Example 46, 2-(3,4-dichlorobenzyl)-9-hydroxy-6-isopropyl-3,4-dihydro-2H-pyrido[1,2-a]pyrazine-1,8-dione] the figure was 10 to 100 nM. With `O=C(Nc1cn2c(c(O)c1=O)C(=O)N(Cc1cccc(Cl)c1F)CC2)c1cccnc1` [Example 352, N-[2-(3-chloro-2-fluorobenzyl)-9-hydroxy-1,8-dioxo-1,3,4,8-tetrahydro-2H-pyrido[1,2-a]pyrazin-7-yl)nicotinamide hydrochloride] the figure was 10 to 100 nM.

One may read the IC50 as the midpoint of a concentration-inhibition curve.
